Experimental data: PubChem BioAssay (NCI)
In brackets after ≈: the same amount, converted by molar mass.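 Exposure lasted 48 hours, with cells grown in 96-well plates and compounds tested at five concentrations. Here, GI50 denotes the concentration required for 50% inhibition of growth. TGI: total growth inhibition.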

Tests used:
Experiment in all cases: growth of human tumour cells (NCI), 48 h
MDA-N = test system: MDA-N
T-47D breast = test system: T-47D breast
BT-549 breast = test system: BT-549 breast
UACC-257 melanoma = test system: UACC-257 melanoma
MDA-MB-231 breast = test system: MDA-MB-231 breast
SF-539 CNS = test system: SF-539 CNS
OVCAR-3 ovarian = test system: OVCAR-3 ovarian
A498 renal = test system: A498 renal
PC-3 prostate = test system: PC-3 prostate
IGROV1 ovarian = test system: IGROV1 ovarian
SR leukemia = test system: SR leukemia
SK-OV-3 ovarian = test system: SK-OV-3 ovarian
HL-60(TB) leukemia = test system: HL-60(TB) leukemia
RPMI-8226 leukemia = test system: RPMI-8226 leukemia
HCT-116 colon = test system: HCT-116 colon
HS 578T breast = test system: HS 578T breast

Row | Structure (SMILES) | TGI (MDA-N) [µM] | TGI (T-47D breast) [µM] | TGI (BT-549 breast) | TGI (UACC-257 melanoma) [µM] | TGI (MDA-MB-231 breast) | TGI (SF-539 CNS) [µM] | TGI (OVCAR-3 ovarian) | TGI (A498 renal) [µM] | TGI (PC-3 prostate) [µM] | TGI (IGROV1 ovarian) [µM] | TGI (SR leukemia) [µM] | TGI (SK-OV-3 ovarian) [µM] | TGI (HL-60(TB) leukemia) [µM] | TGI (RPMI-8226 leukemia) [µM] | TGI (HCT-116 colon) | TGI (HS 578T breast) [µM] | GI50 (BT-549 breast) [µg/mL] | GI50 (MDA-MB-231 breast) [µg/mL] | GI50 (OVCAR-3 ovarian) [µg/mL] | GI50 (HCT-116 colon) [µg/mL]
1 | c1ccc(C2=NN2c2ccccc2)cc1 | > 100 | > 100 | > 100 µM | > 100 | > 100 µM | > 100 | > 100 µM | > 100 | > 100 | > 100 | > 100 | > 100 | – | – | – | – | – | – | – | –
2 | O=C=C=P(c1ccccc1)(c1ccccc1)c1ccccc1 | – | – | – | > 100 | – | > 100 | – | – | – | > 100 | > 100 | > 100 | 92.4 | > 100 | > 100 µM | – | – | – | – | –
3 | O=Cc1cn(CCCCCCCCn2cc(C=O)c3ccccc32)c2ccccc12 | > 10 | > 10 | – | – | > 10 µM | > 10 | > 10 µM | 3.23 | > 10 | > 10 | > 10 | > 10 | > 10 | > 10 | > 10 µM | > 10 | – | – | – | –
4 | ICC1CCCO1 (stereo not given) | – | – | – | > 100 | – | > 100 | – | > 100 | – | > 100 | > 100 | – | > 100 | > 100 | > 100 µM | – | – | – | – | –
5 | CCOP(=O)(C/C=C/Cn1ncc(=O)[nH]c1=O)OCC | > 100 | > 100 | > 100 µM | > 100 | > 100 µM | > 100 | > 100 µM | > 100 | > 100 | > 100 | – | – | > 100 | > 100 | – | > 100 | – | – | – | –
6 | Cc1nc2nc(C)n(CCN3CCOCC3)c(=O)c2c(-c2cccc([N+](=O)[O-])c2)c1C(=O)CCCCCCCCCCN1CCC(c2ccccc2)(c2ccccc2)CC1 | – | – | 4.48 µg/mL | – | 3.53 µg/mL | – | 4.19 µg/mL | – | – | – | – | – | – | – | 3.45 µg/mL | – | 2.33 (≈ 2.87 µM) | 1.68 (≈ 2.07 µM) | 2.21 (≈ 2.72 µM) | 1.63 (≈ 2 µM)
7 | CC1(C)OCC(CO)(CO)CO1 | > 100 | > 100 | – | > 100 | > 100 µM | – | > 100 µM | > 100 | > 100 | – | > 100 | > 100 | > 100 | – | > 100 µM | > 100 | – | – | – | –
